Molecular target: HLA B*5802 (Homo sapiens, UniProt P01889, A329T/C349S/D201E/D98Y/E176V/E187L/E204Q/E69T/G107R/I218V/I90N/K202T/L105A/N104I/N87E/Q89R/Q94S/R106L/R155S/R180L/R86G/S101N/S121W/S35A/S48A/V127L/V306I/V36M/Y140S/Y91M)
Experiment: not given
Type: binding
Conditions: not given

| Sequence | Normalized average relative binding affinity (ARB), HLA B*5802 |
| --- | --- |
| XCXXXXXXX [3064.0022] | 0.051 |
| XDXXXXXXX [3064.0023] | 0.030 |
| XEXXXXXXX [3064.0024] | 0.066 |
| XFXXXXXXX [3064.0025] | 0.030 |

Molecular target: HLA B*2705 (Homo sapiens, UniProt P01889, D138H/D201E/E176V/E204Q/G107R/H137Y/K202T/N104T/N87E/Q56L/Q94K/R106L/R155S/R180L/S101D/S121N/S48T/Y140D/Y33H/Y91C)
Experiment: not given
Type: binding
Conditions: positional scanning combinatorial 9-mer library; normalized to 1.0 for the best residue at each position

| Sequence | Normalized average relative binding affinity (ARB), HLA B*2705 |
| --- | --- |
| XCXXXXXXX [3064.0022] | 0.0016 |
| XDXXXXXXX [3064.0023] | 0.0016 |
| XEXXXXXXX [3064.0024] | 0.0016 |
| XFXXXXXXX [3064.0025] | 0.0016 |

Molecular target: HLA B*3501 (Homo sapiens, UniProt P01889, A329T/A93T/A95T/C349S/D201E/D98Y/E176V/E187L/E204Q/E69T/I218V/K202T/L119I/Q94N/R155S/R180L/S121R/S35A/S48A/T118I/V127L/V306I/V36M/Y140S/Y91F)
Experiment: not given
Type: binding
Conditions: not given

| Sequence | Normalized average relative binding affinity (ARB), HLA B*3501 |
| --- | --- |
| XCXXXXXXX [3064.0022] | 0.067 |
| XDXXXXXXX [3064.0023] | 0.018 |
| XEXXXXXXX [3064.0024] | 0.021 |
| XFXXXXXXX [3064.0025] | 0.012 |

Molecular target: HLA B*1503 (Homo sapiens, UniProt P01889, A329T/A93T/A95T/C349S/D201E/D98Y/E187L/E204Q/K202T/N87E/Q94N/R155S/R180L/S121R/S35A/V306I/V36M/Y140S/Y91S)
Experiment: biochemical
Type: binding
Conditions: not given

| Sequence | Normalized average relative binding affinity (ARB), HLA B*1503 |
| --- | --- |
| XCXXXXXXX [3064.0022] | 0.0028 |
| XDXXXXXXX [3064.0023] | 0.0054 |
| XEXXXXXXX [3064.0024] | 0.11 |
| XFXXXXXXX [3064.0025] | 0.0062 |

Molecular target: HLA B*5301 (Homo sapiens, UniProt P01889, A329T/A93T/A95T/C349S/D201E/D98Y/E176V/E187L/E204Q/E69T/G107R/I218V/K202T/L105A/L119I/N104I/Q94N/R106L/R155S/R180L/S101N/S121R/S35A/S48A/T118I/V127L/V306I/V36M/Y140S/Y91F)
Experiment: not given
Type: binding
Conditions: not given

| Sequence | Normalized average relative binding affinity (ARB), HLA B*5301 |
| --- | --- |
| XCXXXXXXX [3064.0022] | 0.019 |
| XDXXXXXXX [3064.0023] | 0.0088 |
| XEXXXXXXX [3064.0024] | 0.021 |
| XFXXXXXXX [3064.0025] | 0.018 |

Molecular target: HLA B*5801 (Homo sapiens, UniProt P01889, A329T/C349S/D201E/D98Y/E176V/E187L/E204Q/E69T/G107R/I218V/I90N/K202T/L105A/L119I/N104I/N87E/Q89R/Q94S/R106L/R155S/R180L/R86G/S101N/S121R/S35A/S48A/T118I/V127L/V306I/V36M/Y140S/Y91M)
Experiment: not given
Type: binding
Conditions: not given

| Sequence | Normalized average relative binding affinity (ARB), HLA B*5801 |
| --- | --- |
| XCXXXXXXX [3064.0022] | 0.013 |
| XDXXXXXXX [3064.0023] | 0.0033 |
| XEXXXXXXX [3064.0024] | 0.0066 |
| XFXXXXXXX [3064.0025] | 0.097 |

Molecular target: H-2 D^b (Mus musculus, UniProt P01899)
Sequence (P01887 21-119): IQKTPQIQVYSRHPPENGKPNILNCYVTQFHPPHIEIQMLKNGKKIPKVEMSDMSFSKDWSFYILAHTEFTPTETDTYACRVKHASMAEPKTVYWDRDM
Sequence (P01899 25-362): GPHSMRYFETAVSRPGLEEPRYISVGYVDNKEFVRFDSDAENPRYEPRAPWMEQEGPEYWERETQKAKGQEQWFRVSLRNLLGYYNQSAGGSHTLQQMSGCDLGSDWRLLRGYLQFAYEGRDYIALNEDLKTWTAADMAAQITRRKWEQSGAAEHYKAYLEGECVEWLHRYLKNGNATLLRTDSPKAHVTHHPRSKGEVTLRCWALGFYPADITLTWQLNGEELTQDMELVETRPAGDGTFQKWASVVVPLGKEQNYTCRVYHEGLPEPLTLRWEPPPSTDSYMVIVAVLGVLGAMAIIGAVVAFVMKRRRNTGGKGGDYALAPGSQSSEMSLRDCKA
Experiment: not given
Type: binding
Conditions: not given

| Sequence | Normalized average relative binding affinity (ARB), H-2 Db |
| --- | --- |
| XCXXXXXXX [3064.0022] | 0.22 |
| XDXXXXXXX [3064.0023] | 0.036 |
| XEXXXXXXX [3064.0024] | 0.036 |
| XFXXXXXXX [3064.0025] | 0.086 |

Molecular target: HLA B*0801 (Homo sapiens, UniProt P01889, A93T/A95T/D138N/E176V/E187T/K202T/Q94N/R180D/S35A/V36M/Y33D/Y91F)
Experiment: biochemical
Type: binding
Conditions: not given

| Sequence | Normalized average relative binding affinity (ARB), HLA B*0801 |
| --- | --- |
| XCXXXXXXX [3064.0022] | 0.028 |
| XDXXXXXXX [3064.0023] | 0.014 |
| XEXXXXXXX [3064.0024] | 0.038 |
| XFXXXXXXX [3064.0025] | 0.14 |

Molecular target: HLA B*0702 (Homo sapiens, UniProt P01889)
Experiment: not given
Type: binding
Conditions: positional scanning combinatorial 9-mer library; normalized to 1.0 for the best residue at each position

| Sequence | Normalized average relative binding affinity (ARB), HLA B*0702 |
| --- | --- |
| XCXXXXXXX [3064.0022] | 0.0028 |
| XDXXXXXXX [3064.0023] | 0.0029 |
| XEXXXXXXX [3064.0024] | 0.0028 |
| XFXXXXXXX [3064.0025] | 0.0028 |

Molecular target: HLA A*0201 (Homo sapiens, UniProt P04439, D140Y/D185E/D98H/E176V/E277Q/G131W/G231S/I119V/I121R/I166T/I218V/L300P/L318F/N151K/N90K/P208A/P217A/Q86G/Q94H/R138H/R169H/T345S)
Experiment: not given
Conditions: positional scanning combinatorial 9-mer library; normalized to 1.0 for the best residue at each position

| Sequence | Normalized average relative binding affinity (ARB), HLA A*0201 |
| --- | --- |
| XCXXXXXXX [3064.0022] | 0.0016 |
| XDXXXXXXX [3064.0023] | 0.0016 |
| XEXXXXXXX [3064.0024] | 0.030 |
| XFXXXXXXX [3064.0025] | 0.0041 |

Molecular target: H-2 K^k (Mus musculus, UniProt P04223)
Sequence (P01887 21-119): as the sequence (P01887 21-119) above
Sequence (P04223 22-369): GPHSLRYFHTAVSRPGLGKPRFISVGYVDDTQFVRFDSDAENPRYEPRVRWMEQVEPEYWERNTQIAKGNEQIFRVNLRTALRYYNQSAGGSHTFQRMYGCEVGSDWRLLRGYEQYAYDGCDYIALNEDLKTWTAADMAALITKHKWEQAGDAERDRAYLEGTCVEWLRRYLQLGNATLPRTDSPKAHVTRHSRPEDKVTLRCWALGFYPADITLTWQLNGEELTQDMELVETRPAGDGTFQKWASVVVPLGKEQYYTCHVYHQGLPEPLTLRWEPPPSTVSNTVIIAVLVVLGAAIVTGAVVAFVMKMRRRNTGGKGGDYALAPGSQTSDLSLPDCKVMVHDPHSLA
Experiment: not given
Type: binding
Conditions: not given

| Sequence | Normalized average relative binding affinity (ARB), H-2 Kk |
| --- | --- |
| XCXXXXXXX [3064.0022] | 0.010 |
| XDXXXXXXX [3064.0023] | 0.13 |
| XEXXXXXXX [3064.0024] | 1.0 |
| XFXXXXXXX [3064.0025] | 0.016 |

Molecular target: HLA A*3201 (Homo sapiens, UniProt P04439, A270S/D101S/D185E/E176V/E277Q/F133L/G103R/G107R/G231S/H175R/I121M/I218V/I322F/K168Q/L105A/L300P/L318F/M331R/P208A/P217A/Q94H/R106L/R138Q/S129P/T104I/T323A/T345S/V100E/V321M/V358M)
Experiment: biochemical
Type: binding
Conditions: not given

| Sequence | Normalized average relative binding affinity (ARB), HLA A*3201 |
| --- | --- |
| XCXXXXXXX [3064.0022] | 0.028 |
| XDXXXXXXX [3064.0023] | 0.025 |
| XEXXXXXXX [3064.0024] | 0.031 |
| XFXXXXXXX [3064.0025] | 0.012 |

Molecular target: HLA B*5401 (Homo sapiens, UniProt P01889, A329T/C349S/D138N/D201E/E176V/E187T/E204Q/E69G/I76V/K202T/L119W/R155S/R180L/S121T/S35A/S48A/V127L/V306I/V36M/Y140L)
Experiment: not given
Type: binding
Conditions: not given

| Sequence | Normalized average relative binding affinity (ARB), HLA B*5401 |
| --- | --- |
| XCXXXXXXX [3064.0022] | 0.0051 |
| XDXXXXXXX [3064.0023] | 0.0009 |
| XEXXXXXXX [3064.0024] | 0.0026 |
| XFXXXXXXX [3064.0025] | 0.00055 |

Molecular target: HLA A*3001 (Homo sapiens, UniProt P04439, D140H/D185E/E176W/F33S/G80R/H175R/K168Q/R138E/R41S)
Experiment: biochemical
Type: binding
Conditions: not given

| Sequence | Normalized average relative binding affinity (ARB), HLA A*3001 |
| --- | --- |
| XCXXXXXXX [3064.0022] | 0.15 |
| XDXXXXXXX [3064.0023] | 0.012 |
| XEXXXXXXX [3064.0024] | 0.025 |
| XFXXXXXXX [3064.0025] | 0.30 |

Molecular target: HLA A*6802 (Homo sapiens, UniProt P04439, A269V/D140Y/D185E/E176V/E277Q/E87N/F33Y/G231S/I121R/I166T/I218V/L180W/L300P/L318F/N151K/P208A/P217A/Q86R/R138H/R169H/S129P/T345S/V36M)
Experiment: not given
Type: binding
Conditions: not given

| Sequence | Normalized average relative binding affinity (ARB), HLA A*6802 |
| --- | --- |
| XCXXXXXXX [3064.0022] | 0.0076 |
| XDXXXXXXX [3064.0023] | 0.0075 |
| XEXXXXXXX [3064.0024] | 0.0068 |
| XFXXXXXXX [3064.0025] | 0.017 |

Molecular target: HLA B*1501 (Homo sapiens, UniProt P01889, A329T/A93T/A95T/C349S/D201E/D98Y/E187L/E204Q/E69M/E70A/K202T/N87E/Q94N/R155S/R180W/S121R/S35A/S48A/V306I/V36M/Y140S/Y91S)
Experiment: biochemical
Type: binding
Conditions: not given

| Sequence | Normalized average relative binding affinity (ARB), HLA B*1501 |
| --- | --- |
| XCXXXXXXX [3064.0022] | 0.027 |
| XDXXXXXXX [3064.0023] | 0.0094 |
| XEXXXXXXX [3064.0024] | 0.20 |
| XFXXXXXXX [3064.0025] | 0.099 |

Molecular target: H-2 D^d (Mus musculus, UniProt P01900)
Sequence (P01900 whole entry, looked up): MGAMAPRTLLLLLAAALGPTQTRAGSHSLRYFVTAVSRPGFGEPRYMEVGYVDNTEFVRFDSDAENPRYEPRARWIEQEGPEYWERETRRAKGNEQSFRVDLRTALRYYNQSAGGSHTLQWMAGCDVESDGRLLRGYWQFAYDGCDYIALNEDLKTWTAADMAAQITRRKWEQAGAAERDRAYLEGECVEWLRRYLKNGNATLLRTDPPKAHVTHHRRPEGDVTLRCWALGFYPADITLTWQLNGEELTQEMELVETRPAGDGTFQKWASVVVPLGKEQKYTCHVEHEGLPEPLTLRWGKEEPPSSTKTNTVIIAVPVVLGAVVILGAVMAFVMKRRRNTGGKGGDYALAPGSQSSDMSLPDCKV
Experiment: not given
Type: binding
Conditions: not given

| Sequence | Normalized average relative binding affinity (ARB), H-2 Dd |
| --- | --- |
| XCXXXXXXX [3064.0022] | 0.013 |
| XDXXXXXXX [3064.0023] | 0.013 |
| XEXXXXXXX [3064.0024] | 0.014 |
| XFXXXXXXX [3064.0025] | 0.074 |

Molecular target: HLA B*5101 (Homo sapiens, UniProt P01889, A329T/A93T/A95T/C349S/D138N/D201E/D98Y/E187L/E204Q/E69T/G107R/I218V/K202T/L105A/L119W/N104I/Q94N/R106L/R155S/R180L/S101N/S121T/S35A/S48A/V306I/V36M/Y195H/Y91F)
Experiment: not given
Type: binding
Conditions: not given

| Sequence | Normalized average relative binding affinity (ARB), HLA B*5101 |
| --- | --- |
| XCXXXXXXX [3064.0022] | 0.079 |
| XDXXXXXXX [3064.0023] | 0.022 |
| XEXXXXXXX [3064.0024] | 0.041 |
| XFXXXXXXX [3064.0025] | 0.086 |
